Test results reported in patent US9840513B2 (AbbVie S.à.r.l., priority 2015, dated 2017).

Biological target: T1, F508delCFTR cell surface expression in CFBE41o-F508delCFTR-HRP cells (Homo sapiens, UniProt P13569, DEL508-508)
T1 construct: fused on or other part: Horseradish peroxidase (HRP) reporter inserted in the fourth exofacial (extracellular) loop of CFTR; expression is doxycycline-inducible
Experiment: Cell Surface Expression-Horse Radish Peroxidase (CSE-HRP) Assay
Assay type: cell-based
Details: for EC50: CFBE41o-F508delCFTR-HRP cells, 18-24 hours at 33° C., 8-point curve, highest concentration 20 μM; for Maximum % activity (%): maximum at any tested concentration, normalized to on-plate positive control (3 μM)
Method in brief: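 CFBE41o- cells with HRP-tagged F508delCFTR, expression induced by 0.5 μg/mL doxycycline for 72 h at 37 °C, then compound for 18-24 h at 33 °C (8-point, 3-fold, top 20 μM). Surface HRP measured by luminol luminescence; % activity normalised to 3 μM positive-control corrector; EC50 from variable-slope sigmoidal fit, three replicate plates.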

T1 sequence (P13569 with tags, fused parts or gaps DEL508-508 limits assumed): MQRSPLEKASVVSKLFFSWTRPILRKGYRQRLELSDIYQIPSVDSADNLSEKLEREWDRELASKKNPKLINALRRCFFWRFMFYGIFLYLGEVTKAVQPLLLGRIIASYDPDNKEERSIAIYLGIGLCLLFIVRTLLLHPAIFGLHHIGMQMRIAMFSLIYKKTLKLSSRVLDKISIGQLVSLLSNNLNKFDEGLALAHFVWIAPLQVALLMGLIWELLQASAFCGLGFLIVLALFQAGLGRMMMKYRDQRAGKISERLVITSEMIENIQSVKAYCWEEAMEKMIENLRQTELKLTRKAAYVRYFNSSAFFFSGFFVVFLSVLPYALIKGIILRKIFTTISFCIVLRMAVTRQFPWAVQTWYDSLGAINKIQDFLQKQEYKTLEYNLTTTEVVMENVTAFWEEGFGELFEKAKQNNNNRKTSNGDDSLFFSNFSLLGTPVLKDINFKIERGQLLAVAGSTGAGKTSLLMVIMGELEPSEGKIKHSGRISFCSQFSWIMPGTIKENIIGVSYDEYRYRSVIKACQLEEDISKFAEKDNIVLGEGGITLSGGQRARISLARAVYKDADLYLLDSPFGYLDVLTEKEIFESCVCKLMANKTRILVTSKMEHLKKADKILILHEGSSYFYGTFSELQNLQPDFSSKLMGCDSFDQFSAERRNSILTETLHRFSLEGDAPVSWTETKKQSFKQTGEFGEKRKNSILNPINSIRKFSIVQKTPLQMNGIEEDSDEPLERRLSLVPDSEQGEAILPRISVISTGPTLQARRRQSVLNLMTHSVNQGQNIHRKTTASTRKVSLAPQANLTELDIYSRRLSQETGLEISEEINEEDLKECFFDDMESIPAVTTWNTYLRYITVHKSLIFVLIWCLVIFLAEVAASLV
T1 sequence (P13569 919-1480 limits assumed, stated change not applied): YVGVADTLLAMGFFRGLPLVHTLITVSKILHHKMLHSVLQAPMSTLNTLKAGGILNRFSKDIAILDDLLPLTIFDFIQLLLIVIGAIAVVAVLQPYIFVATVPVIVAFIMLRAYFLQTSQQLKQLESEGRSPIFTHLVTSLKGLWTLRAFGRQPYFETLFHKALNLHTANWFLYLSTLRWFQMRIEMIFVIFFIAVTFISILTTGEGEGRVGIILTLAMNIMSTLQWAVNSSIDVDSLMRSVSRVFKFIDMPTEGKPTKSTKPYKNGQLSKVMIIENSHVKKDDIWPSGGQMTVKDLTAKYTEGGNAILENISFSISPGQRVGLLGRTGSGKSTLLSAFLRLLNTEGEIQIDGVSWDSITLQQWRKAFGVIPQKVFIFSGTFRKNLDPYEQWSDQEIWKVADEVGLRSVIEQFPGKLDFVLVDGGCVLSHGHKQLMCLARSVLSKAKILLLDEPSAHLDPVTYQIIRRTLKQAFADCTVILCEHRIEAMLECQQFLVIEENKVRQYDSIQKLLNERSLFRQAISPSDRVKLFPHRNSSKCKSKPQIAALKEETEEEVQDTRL

`CC(C)(C)OC(=O)N[C@H]1CC[C@H]([C@H]2C[C@@H](NC(=O)[C@@]3(C)COc4cc5c(cc43)OC(F)(F)O5)c3ccc(OC(F)F)cc3O2)CC1` [Example 199, tert-butyl {trans-4-[(2R,4R)-7-(difluoromethoxy)-4-{[(7R)-2,2-difluoro-7-methyl-6,7-dihydro-2H-furo[2,3-f][1,3]benzodioxole-7-carbonyl]amino}-3,4-dihydro-2H-1-benzopyran-2-yl]cyclohexyl}carbamate] was tested, and the EC50 was 210 nM and the “Maximum % activity (%)” value was 149%.
With `COc1ccc2c(c1)O[C@H](c1ccc(=O)[nH]n1)C[C@H]2NC(=O)[C@@]1(C)COc2cc3c(cc21)OC(F)(F)O3` [Example 200, (7R)-2,2-difluoro-N-[(2S,4R)-7-methoxy-2-(6-oxo-1,6-dihydropyridazin-3-yl)-3,4-dihydro-2H-1-benzopyran-4-yl]-7-methyl-6,7-dihydro-2H-furo[2,3-f][1,3]benzodioxole-7-carboxamide] the EC50 was 70 nM and the “Maximum % activity (%)” value was 132%.
`C[C@]1(C(=O)N[C@H]2C[C@@H](C3(C(=O)O)CC3)Oc3cc(OC(F)(F)F)ccc32)COc2cc3c(cc21)OC(F)(F)O3` [Example 201, 1-[(2S,4S)-4-{[(7R)-2,2-difluoro-7-methyl-6,7-dihydro-2H-furo[2,3-f][1,3]benzodioxole-7-carbonyl]amino}-7-(trifluoromethoxy)-3,4-dihydro-2H-1-benzopyran-2-yl]cyclopropane-1-carboxylic acid] was tested, and the EC50 was 1610 nM and the “Maximum % activity (%)” value was 71%.
For `COc1ccc2c(c1)O[C@@H](c1nnn[nH]1)C[C@H]2NC(=O)[C@@]1(C)COc2cc3c(cc21)OC(F)(F)O3` [Example 202, (7R)-2,2-difluoro-N-[(2R,4R)-7-methoxy-2-(1H-tetrazol-5-yl)-3,4-dihydro-2H-1-benzopyran-4-yl]-7-methyl-6,7-dihydro-2H-furo[2,3-f][1,3]benzodioxole-7-carboxamide], the EC50 was > 20000 nM and the “Maximum % activity (%)” value was 8%.
With `C[C@]1(C(=O)Nc2cc3cc(C4(COCc5ccccc5)CC4)n(C[C@@H](O)CO)c3cc2F)COc2cc3c(cc21)OC(F)(F)O3` [Example 203, (7R)—N-(2-{1-[(benzyloxy)methyl]cyclopropyl}-1-[(2R)-2,3-dihydroxypropyl]-6-fluoro-1H-indol-5-yl)-2,2-difluoro-7-methyl-6,7-dihydro-2H-furo[2,3-f][1,3]benzodioxole-7-carboxamide] the EC50 was 660 nM and the “Maximum % activity (%)” value was 125%.
`CC(C)(COCc1ccccc1)c1cc2cc(NC(=O)[C@@]3(C)COc4cc5c(cc43)OC(F)(F)O5)c(F)cc2[nH]1` [Example 204, (7R)—N-{2-[1-(benzyloxy)-2-methylpropan-2-yl]-6-fluoro-1H-indol-5-yl}-2,2-difluoro-7-methyl-6,7-dihydro-2H-furo[2,3-f][1,3]benzodioxole-7-carboxamide] was tested, and the EC50 was 310 nM and the “Maximum % activity (%)” value was 134%.
In the case of `CC(C)(COCc1ccccc1)c1cc2cc(NC(=O)[C@]3(C)COc4cc5c(cc43)OC(F)(F)O5)c(F)cc2n1C[C@@H](O)COCc1ccccc1` [Example 205, (7S)—N-{1-[(2R)-3-(benzyloxy)-2-hydroxypropyl]-2-[1-(benzyloxy)-2-methylpropan-2-yl]-6-fluoro-1H-indol-5-yl}-2,2-difluoro-7-methyl-6,7-dihydro-2H-furo[2,3-f][1,3]benzodioxole-7-carboxamide], the EC50 is reported as > 20000 nM and the “Maximum % activity (%)” value is reported as 18%.
For `CC1(C)OC[C@@H](Cn2c3c(c4cc(NC(=O)[C@@]5(C)COc6cc7c(cc65)OC(F)(F)O7)c(F)cc42)C(C)(C)OCC3(C)C)O1` [Example 207, (7R)—N-(5-{[(4R)-2,2-dimethyl-1,3-dioxolan-4-yl]methyl}-7-fluoro-1,1,4,4-tetramethyl-1,3,4,5-tetrahydropyrano[4,3-b]indol-8-yl)-2,2-difluoro-7-methyl-6,7-dihydro-2H-furo[2,3-f][1,3]benzodioxole-7-carboxamide], the EC50 was 350 nM and the “Maximum % activity (%)” value was 69%.
For `COc1ccc2c(c1)O[C@@H](c1ccc(C(=O)Nc3ccccc3O)cn1)C[C@H]2NC(=O)[C@@]1(C)COc2cc3c(cc21)OC(F)(F)O3` [Example 208, 6-[(2R,4R)-4-{[(7R)-2,2-difluoro-7-methyl-6,7-dihydro-2H-furo[2,3-f][1,3]benzodioxole-7-carbonyl]amino}-7-methoxy-3,4-dihydro-2H-1-benzopyran-2-yl]-N-(2-hydroxyphenyl)pyridine-3-carboxamide], the EC50 was 10 nM and the “Maximum % activity (%)” value was 103%.
For `CCCN(CCO)C(=O)c1ccc([C@H]2C[C@@H](NC(=O)[C@@]3(C)COc4cc5c(cc43)OC(F)(F)O5)c3ccc(OC)cc3O2)nc1` [Example 209, 6-[(2R,4R)-4-{[(7R)-2,2-difluoro-7-methyl-6,7-dihydro-2H-furo[2,3-f][1,3]benzodioxole-7-carbonyl]amino}-7-methoxy-3,4-dihydro-2H-1-benzopyran-2-yl]-N-(2-hydroxyethyl)-N-propylpyridine-3-carboxamide], the EC50 was 30 nM and the “Maximum % activity (%)” value was 122%.
In the case of `COc1ccc2c(c1)O[C@@H](c1ccc(C(=O)N(CCO)Cc3ccccc3)cn1)C[C@H]2NC(=O)[C@@]1(C)COc2cc3c(cc21)OC(F)(F)O3` [Example 210, N-benzyl-6-[(2R,4R)-4-{[(7R)-2,2-difluoro-7-methyl-6,7-dihydro-2H-furo[2,3-f][1,3]benzodioxole-7-carbonyl]amino}-7-methoxy-3,4-dihydro-2H-1-benzopyran-2-yl]-N-(2-hydroxyethyl)pyridine-3-carboxamide], the EC50 is reported as 30 nM and the “Maximum % activity (%)” value is reported as 147%.
In the case of `COc1ccc2c(c1)O[C@@H](c1ccc(C(=O)N(C)CC(O)c3ccccc3)cn1)C[C@H]2NC(=O)[C@@]1(C)COc2cc3c(cc21)OC(F)(F)O3` (stereo partly drawn) [Example 211, 6-[(2R,4R)-4-{[(7R)-2,2-difluoro-7-methyl-6,7-dihydro-2H-furo[2,3-f][1,3]benzodioxole-7-carbonyl]amino}-7-methoxy-3,4-dihydro-2H-1-benzopyran-2-yl]-N-(2-hydroxy-2-phenylethyl)-N-methylpyridine-3-carboxamide], the EC50 is reported as 30 nM and the “Maximum % activity (%)” value is reported as 124%.
`COc1ccc2c(c1)O[C@@H](c1ccc(C(=O)N3CCC(O)CC3)cn1)C[C@H]2NC(=O)[C@@]1(C)COc2cc3c(cc21)OC(F)(F)O3` [Example 212, (7R)-2,2-difluoro-N-{(2R,4R)-2-[5-(4-hydroxypiperidine-1-carbonyl)pyridin-2-yl]-7-methoxy-3,4-dihydro-2H-1-benzopyran-4-yl}-7-methyl-6,7-dihydro-2H-furo[2,3-f][1,3]benzodioxole-7-carboxamide] was tested, and the EC50 was 30 nM and the “Maximum % activity (%)” value was 119%.
For `COc1ccc2c(c1)O[C@@H](c1ccc(C(=O)NC(C)(C)CO)cn1)C[C@H]2NC(=O)[C@@]1(C)COc2cc3c(cc21)OC(F)(F)O3` [Example 215, 6-[(2R,4R)-4-{[(7R)-2,2-difluoro-7-methyl-6,7-dihydro-2H-furo[2,3-f][1,3]benzodioxole-7-carbonyl]amino}-7-methoxy-3,4-dihydro-2H-1-benzopyran-2-yl]-N-(1-hydroxy-2-methylpropan-2-yl)pyridine-3-carboxamide], the EC50 was 30 nM and the “Maximum % activity (%)” value was 113%.
In the case of `COc1ccc2c(c1)O[C@@H](c1ccc(C(=O)NC(CO)c3ccccc3)cn1)C[C@H]2NC(=O)[C@@]1(C)COc2cc3c(cc21)OC(F)(F)O3` (stereo partly drawn) [Example 216, 6-[(2R,4R)-4-{[(7R)-2,2-difluoro-7-methyl-6,7-dihydro-2H-furo[2,3-f][1,3]benzodioxole-7-carbonyl]amino}-7-methoxy-3,4-dihydro-2H-1-benzopyran-2-yl]-N-(2-hydroxy-1-phenylethyl)pyridine-3-carboxamide], the EC50 is reported as 30 nM and the “Maximum % activity (%)” value is reported as 130%.
`COc1ccc2c(c1)O[C@@H](c1ccc(C(=O)NC3CCS(=O)(=O)CC3)cn1)C[C@H]2NC(=O)[C@@]1(C)COc2cc3c(cc21)OC(F)(F)O3` [Example 217, 6-[(2R,4R)-4-{[(7R)-2,2-difluoro-7-methyl-6,7-dihydro-2H-furo[2,3-f][1,3]benzodioxole-7-carbonyl]amino}-7-methoxy-3,4-dihydro-2H-1-benzopyran-2-yl]-N-(1,1-dioxo-1lambda^6-thian-4-yl)pyridine-3-carboxamide] was tested, and the EC50 was 120 nM and the “Maximum % activity (%)” value was 104%.
For `COc1ccc2c(c1)O[C@@H](c1ccc(C(=O)N3CCC(F)(F)CC3)cn1)C[C@H]2NC(=O)[C@@]1(C)COc2cc3c(cc21)OC(F)(F)O3` [Example 218, (7R)—N-{(2R,4R)-2-[5-(4,4-difluoropiperidine-1-carbonyl)pyridin-2-yl]-7-methoxy-3,4-dihydro-2H-1-benzopyran-4-yl}-2,2-difluoro-7-methyl-6,7-dihydro-2H-furo[2,3-f][1,3]benzodioxole-7-carboxamide], the EC50 was 10 nM and the “Maximum % activity (%)” value was 116%.
`COc1ccc2c(c1)O[C@@H](c1ccc(C(=O)N3CCCOCC3)cn1)C[C@H]2NC(=O)[C@@]1(C)COc2cc3c(cc21)OC(F)(F)O3` [Example 219, (7R)-2,2-difluoro-N-{(2R,4R)-7-methoxy-2-[5-(1,4-oxazepane-4-carbonyl)pyridin-2-yl]-3,4-dihydro-2H-1-benzopyran-4-yl}-7-methyl-6,7-dihydro-2H-furo[2,3-f][1,3]benzodioxole-7-carboxamide] was tested, and the EC50 was 30 nM and the “Maximum % activity (%)” value was 105%.
In the case of `COc1ccc2c(c1)O[C@@H](c1ccc(C(=O)NC3c4ccccc4CC3O)cn1)C[C@H]2NC(=O)[C@@]1(C)COc2cc3c(cc21)OC(F)(F)O3` (stereo partly drawn) [Example 221, 6-[(2R,4R)-4-{[(7R)-2,2-difluoro-7-methyl-6,7-dihydro-2H-furo[2,3-f][1,3]benzodioxole-7-carbonyl]amino}-7-methoxy-3,4-dihydro-2H-1-benzopyran-2-yl]-N-(2-hydroxy-2,3-dihydro-1H-inden-1-yl)pyridine-3-carboxamide], the EC50 is reported as 80 nM and the “Maximum % activity (%)” value is reported as 125%.
